Here are results for 24 compounds from patent US11028090B2 (Dong Wha Pharm. Co., Ltd., priority 2017, dated 2021).

Assay [1] relates to acute myelogenous leukemia cells (MV-4-11 cells). In words: Cytotoxicity to acute myelogenous leukemia cells (MV-4-11 cells), CCK-8. The following applies: Homo sapiens, MV4-11, 72 h.
Assay [2] deals with thymus cancer cells (Ty-82 cells). In words: Cytotoxicity to thymus cancer cells (Ty-82 cells), WST-1. The following applies: Homo sapiens, TY82, 72 h.
Protocol: The following experiment was performed to evaluate the cytotoxicity of [1,2,4]triazolo[4,3-a]quinoxaline derivative according to the present invention to thymus cancer cells (Ty-82 cells).
First, thymus cancer cells (Ty-82 cells) were distributed in a 96 well plate at the density of 2.5×10^4 cells/well. 24 hours later, the plated cells were treated with the compounds of the present invention dissolved in DMSO at the different concentrations ranging from 0.01 μM to 10 μM. 72 hours later, the activities of the compounds were determined using WST-1 reagent.
Assay [3] concerns the target BRD4 (BD1+BD2) bromodomain (Homo sapiens (Human), UniProt O60885). The assay can be described thus: BRD4 binding inhibition (AlphaScreen, GST-BRD4 vs tetraacetylated histone H4 peptide). Put shortly:
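GST-BRD4 (BD1+BD2) and biotinylated tetraacetyl-histone H4 peptide, each at 100 nM in HEPES pH 7.4 buffer with BSA and DTT, were combined with compound. Glutathione acceptor and streptavidin donor beads were added, then incubated 30 min at room temperature in the dark. Read-out was AlphaScreen signal.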

[4] abbreviates: read-out: MV-4-11 Cytotoxicity IC50.
The mark [5] stands for this setting: read-out: Ty-82 Cytotoxicity IC50.
The mark [6] stands for this setting: GST-BRD4 (BD1+BD2) / biotinylated acetyl-histone H4 (Lys5,8,12,16) peptide, read-out: IC50, BRD4 binding inhibition.
Setting [7] is: GST-BRD4 (BD1+BD2) vs biotinylated acetyl-histone H4 peptide, AlphaScreen, read-out: BRD4 IC50.
[8] abbreviates: read-out: IC50, cytotoxicity against thymus cancer cells.
Setting [9] is: read-out: IC50, cytotoxicity against acute myelogenous leukemia cells.

Where two headings read alike, the source gives them in different places.

On to `Cc1nnc2c(NCCCCNC(=O)c3ccccc3)nc3ccccc3n12` [Example 11, N-[4-(1-methyl-[1,2,4]triazolo[4,3-a]quinoxaline-4-ylamino)-butyl]-benzamide], for which the IC50 in assay [1] (setting [4]) was 710 nM; in assay [2] (setting [5]), 950 nM.
For `COc1cc2nc(NCCCCNC(=O)OC(C)(C)C)c3nnc(C)n3c2cc1OC` [Example 57, [4-(7,8-dimethoxy-1-methyl-[1,2,4]triazolo[4,3-a]quinoxaline-4-ylamino)-butyl]-carbamic acid-tert-butylester], the IC50 in assay [1] (setting [4]) was 760 nM; in assay [3] (setting [6]), no more than 50 nM; in assay [3] (setting [7]), 20 nM; in assay [2] (setting [5]) it was 740 nM.
Turning to `COc1cc2nc(NCCCCNC(=O)C(C)(C)C)c3nnc(C)n3c2cc1OC` [Example 59, N-[4-(7,8-dimethoxy-1-methyl-[1,2,4]triazolo[4,3-a]quinoxaline-4-ylamino)-butyl]-2,2-dimethyl-propionamide], the IC50 in assay [1] (setting [4]) is 310 nM; in assay [3] (setting [6]) it was no more than 50 nM; in assay [3] (setting [7]) it was 34 nM; in assay [2] (setting [8]), no more than 500 nM; in assay [2] (setting [5]), 420 nM.
For `COc1cc2nc(NCCCCNC(=O)OC(C)C)c3nnc(C)n3c2cc1OC` [Example 60, [4-(7,8-dimethoxy-1-methyl-[1,2,4]triazolo[4,3-a]quinoxaline-4-ylamino)-butyl]-carbamic acid isopropylester], the IC50 in assay [1] (setting [9]) is no more than 200 nM; in assay [1] (setting [4]) it was 10 nM; in assay [3] (setting [6]), no more than 50 nM; in assay [3] (setting [7]), 12 nM; in assay [2] (setting [8]), no more than 500 nM; in assay [2] (setting [5]), 120 nM.
Consider `COc1cc2nc(NCCCCNC(=O)OCC(C)C)c3nnc(C)n3c2cc1OC` [Example 62, [4-(7,8-dimethoxy-1-methyl-[1,2,4]triazolo[4,3-a]quinoxaline-4-ylamino)-butyl]-carbamic acid isobutylester], for which the IC50 is no more than 200 nM in assay [1] (setting [9]); 120 nM in assay [1] (setting [4]); no more than 10 nM in assay [3] (setting [6]); 7 nM in assay [3] (setting [7]); no more than 500 nM in assay [2] (setting [8]); 290 nM in assay [2] (setting [5]).
`C=CCOC(=O)NCCCCNc1nc2cc(OC)c(OC)cc2n2c(C)nnc12` [Example 65, [4-(7,8-dimethoxy-1-methyl-[1,2,4]triazolo[4,3-a]quinoxaline-4-ylamino)-butyl]-carbamic acid allylester]: the IC50 was no more than 200 nM in assay [1] (setting [9]); 130 nM in assay [1] (setting [4]); no more than 50 nM in assay [3] (setting [6]); 22 nM in assay [3] (setting [7]); no more than 500 nM in assay [2] (setting [8]); 370 nM in assay [2] (setting [5]).
As for `COc1cc2nc(NCCCCNC(=O)OC3CCCC3)c3nnc(C)n3c2cc1OC` [Example 66, [4-(7,8-dimethoxy-1-methyl-[1,2,4]triazolo[4,3-a]quinoxaline-4-ylamino)-butyl]-carbamic acid cyclopentyl-ester], the IC50 in assay [1] (setting [9]) is no more than 200 nM; in assay [1] (setting [4]), 110 nM; in assay [3] (setting [6]), no more than 50 nM; in assay [3] (setting [7]), 13 nM; in assay [2] (setting [8]), no more than 500 nM; in assay [2] (setting [5]) it was 58 nM.
Consider `COc1cc2nc(NCCCCNC(=O)Oc3ccccc3)c3nnc(C)n3c2cc1OC` [Example 67, [4-(7,8-dimethoxy-1-methyl-[1,2,4]triazolo[4,3-a]quinoxaline-4-ylamino)-butyl]-carbamic acid phenylester], for which the IC50 in assay [1] (setting [9]) was no more than 200 nM; in assay [1] (setting [4]) it was 140 nM; in assay [3] (setting [7]), 19 nM; in assay [3] (IC50, BRD4 binding inhibition, GST-BRD4 (BD1+BD2) / biotinylated acetyl-histone H4 (Lys5,8,12,16) peptide) it was no more than 50 nM; in assay [2] (setting [8]), no more than 500 nM; in assay [2] (setting [5]), 170 nM.
As to `COCCOc1cc2nc(NCCCCNC(=O)c3ccccc3Cl)c3nnc(C)n3c2cc1OCCOC` [Example 171, N-{4-[7,8-bis-(2-methoxy-ethoxy)-1-methyl-[1,2,4]triazolo[4,3-a]quinoxaline-4-ylamino]-butyl}-2-chloro-benzamide], the IC50 in assay [3] (setting [6]) is no more than 50 nM; in assay [3] (setting [7]), 26 nM; in assay [2] (setting [5]), 580 nM.
In the case of `COC(=O)c1ccc2c(c1)nc(NCCCCNC(=O)OC(C)(C)C)c1nnc(C)n12` [Example 197, 4-(4-tert-butoxycarbamoylamino-butylamino)-1-methyl-[1,2,4]triazolo[4,3-a]quinoxaline-7-carboxylic acid methylester], the IC50 in assay [3] (setting [6]) was no more than 50 nM; in assay [3] (setting [7]) it was 28 nM; in assay [2] (setting [5]) it was 650 nM.
Consider `Cc1nnc2c(NCCCCNC(=O)OC(C)(C)C)nc3cc(C(=O)NC(C)C)ccc3n12` [Example 202, [4-(7-isopropylcarbamoyl-1-methyl-[1,2,4]triazolo[4,3-a]quinoxaline-4-ylamino)-butyl]-carbamic acid-tert-butylester], for which the IC50 in assay [3] (setting [6]) is no more than 50 nM; in assay [3] (setting [7]), 44 nM; in assay [2] (setting [5]), 640 nM.
In the case of `Cc1nnc2c(NCCCCNC(=O)c3ccccc3)nc3cc(C(=O)NC(C)C)ccc3n12` [Example 205, 4-(4-benzoylamino-butylamino)-1-methyl-[1,2,4]triazolo[4,3-a]quinoxaline-7-carboxylic acid isopropylamide], the values for the IC50 in assay [3] (setting [7]) and in assay [2] (setting [5]) were 75 nM and 550 nM, respectively.
As to `Cc1nnc2c(NCCCCNC(=O)OC(C)(C)C)nc3cc(C(=O)NCc4ccccc4)ccc3n12` [Example 210, [4-(7-benzylcarbamoyl-1-methyl-[1,2,4]triazolo[4,3-a]quinoxaline-4-ylamino)-butyl]-carbamic acid-tert-butylester], the IC50 was no more than 50 nM in assay [3] (setting [6]), 18 nM in assay [3] (setting [7]) and 760 nM in assay [2] (setting [5]).
Take `Cc1nnc2c(NCCCCNC(=O)OC(C)(C)C)nc3cc(C(=O)Nc4ccccc4)ccc3n12` [Example 212, [4-(1-methyl-7-phenylcarbamoyl-[1,2,4]triazolo[4,3-a]quinoxaline-4-ylamino)-butyl]-carbamic acid-tert-butylester]: the IC50 in assay [3] (setting [6]) was no more than 50 nM; in assay [3] (setting [7]) it was 35 nM; in assay [2] (setting [5]), 840 nM.
For the compound `Cc1nnc2c(NCCCCNC(=O)OC(C)(C)C)nc3cc(NC(=O)C(C)C)ccc3n12` [Example 246, [4-(7-isobutyramido-1-methyl-[1,2,4]triazolo[4,3-a]quinoxaline-4-ylamino)-butyl]-carbamic acid-tert-butylester], the IC50 is no more than 50 nM in assay [3] (setting [6]), 23 nM in assay [3] (setting [7]), no more than 500 nM in assay [2] (setting [8]) and 490 nM in assay [2] (setting [5]).
For `Cc1nnc2c(NCCCCNC(=O)C(C)(C)C)nc3cc(NC(=O)C(C)C)ccc3n12` [Example 247, N-[4-(7-isobutyramido-1-methyl-[1,2,4]triazolo[4,3-a]quinoxaline-4-ylamino)-butyl]-2,2-dimethyl-propionamide], in that order: no more than 50 nM, 31 nM, no more than 500 nM and 400 nM.
For the compound `Cc1nnc2c(NCCCCNC(=O)c3ccccc3)nc3cc(NC(=O)C(C)C)ccc3n12` [Example 248, N-[4-(7-isobutyramido-1-methyl-[1,2,4]triazolo[4,3-a]quinoxaline-4-ylamino)-butyl]-benzamide], the IC50 in assay [3] (setting [7]) turned out to be 54 nM; in assay [2] (setting [5]) it was 510 nM.
For the compound `CC(=O)Nc1ccc2c(c1)nc(NCCCCNC(=O)OC(C)(C)C)c1nnc(C)n12` [Example 249, [4-(7-acetylamino-methyl-[1,2,4]triazolo[4,3-a]quinoxaline-4-ylamino)-butyl]-carbamic acid-tert-butylester], the IC50 in assay [3] (setting [6]) was no more than 50 nM; in assay [2] (setting [8]), no more than 500 nM; in assay [2] (setting [5]) it was 400 nM.
Regarding `CC(=O)Nc1ccc2c(c1)nc(NCCCCNC(=O)C(C)(C)C)c1nnc(C)n12` [Example 250, N-[4-(7-acetylamino-methyl-[1,2,4]triazolo[4,3-a]quinoxaline-4-ylamino)-butyl]-2,2-dimethyl-propionamide], the IC50 in assay [3] (setting [6]) was no more than 50 nM; in assay [2] (setting [8]), no more than 500 nM; in assay [2] (setting [5]), 300 nM.
With `CC(=O)Nc1ccc2c(c1)nc(NCCCCNC(=O)c1ccccc1)c1nnc(C)n12` [Example 251, N-[4-(7-acetylamino-methyl-[1,2,4]triazolo[4,3-a]quinoxaline-4-ylamino)-butyl]-benzamide], the IC50 in assay [3] (setting [6]) was no more than 50 nM; in assay [2] (setting [5]), 680 nM.
As to `COc1ccc2c(c1)nc(NCCCCNC(=O)C(C)(C)C)c1nnc(C)n12` [Example 277, N-[4-(7-methoxy-1-methyl-[1,2,4]triazolo[4,3-a]quinoxaline-4-ylamino)-butyl]-2,2-dimethyl-propionamide], the figures for the IC50 in assay [1] (setting [4]) and in assay [2] (setting [5]) were 550 nM and 930 nM, respectively.
For `COc1cc2nc(NCCCCNC(=O)OC(C)(C)C)c3nnc(C)n3c2cc1C` [Example 464, [4-(7-methoxy-1,8-dimethyl-[1,2,4]triazolo[4,3-a]quinoxaline-4-ylamino)-butyl]-carbamic acid-tert-butylester], the IC50 came to 61 nM in assay [3] (setting [7]) and 790 nM in assay [2] (setting [5]).
Consider `COc1cc2nc(NCCCCNC(=O)C(C)(C)C)c3nnc(C)n3c2cc1C` [Example 466], for which the IC50 is no more than 200 nM in assay [1] (setting [9]), 83 nM in assay [1] (setting [4]), no more than 500 nM in assay [2] (setting [8]) and 340 nM in assay [2] (setting [5]).
For `Cc1nnc2c(NCCCCC(=O)NCC(C)C)nc3ccccc3n12` [Example 660, 5-(1-methyl-[1,2,4]triazolo[4,3-a]quinoxaline-4-ylamino)-pentanoic acid isobutylamide], the IC50 in assay [3] (setting [6]) is no more than 50 nM; in assay [3] (setting [7]), 36 nM; in assay [2] (setting [5]), 840 nM.
